Measured values reported in patent publication US20050192245A1, “Medicinal composition for treating arteriosclerosis” (SANKYO COMPANY, LIMITED, priority 2002, published 2005).

Test system: atherogenic lesions of the right femoral artery (arteriosclerosis)
Experiment: Atherogenic lesions in cholesterol diet-loaded rabbits with Nylon thread-induced chronic endothelial damage (right femoral artery)
Assay type: in vivo, male New Zealand White rabbits
Conditions: oral, 8 weeks
Protocol: A test was conducted in which male New Zealand White rabbits (body weights: 1.0 to 1.5 kg) were loaded for 10 weeks with a cholesterol diet (0.5% cholesterol, 3% peanut oil and 3% coconut oil) in the amounts indicated below. The animals were fed 40 g for the first two weeks, 50 g for the next four weeks, and 60 g for the final four weeks. Two weeks after cholesterol diet loading, a Nylon thread was aseptically inserted from the right femoral artery to the vicinity of the diaphragm to induce chronic endothelial damage in the abdominal aorta and right femoral artery. The Nylon thread was immobilized for 8 weeks at the insertion site. Following surgery to insert the Nylon thread, the animals were grouped so that the average values of serum total cholesterol, triglycerides, platelet aggregation and body weight of each group were nearly equal, followed by oral administration of the ADP receptor antagonist and the ACAT inhibitor either alone or combined. After necrotomy of the animals 8 weeks after administration, the right femoral arteries were excised and the ratio of the surface area covered by atherogenic lesions was calculated. After exposing the right femoral artery (by 1 cm from the branch of the iliac artery), it was photographed with a digital camera (COOLPX990, Nikon) followed by measurement of the surface area of the lumen and the surface area covered by atherogenic lesions using an image analyzer, and calculation of the ratio of the surface area covered by atherogenic lesions relative to the surface area of the aorta lumen as a percentage. In addition, a section 1 cm from the branch of the iliac artery on the side of the femoral artery was cut out and after fixing in methanol-carnoy solution, was embedded in a paraffin block. After slicing into thin sections, the sections were immunostained using Elastica-Masson stain and anti-human α-actin antibody (1A4) followed by calculating the degree of medial intimal thickness and the smooth muscle cell occupancy rate using an image analyzer. In the table, Compound A represent 2-acetoxy-5-(α-cyclopropylcarbonyl-2-fluorobenzyl)-4,5,6,7-tetrahydrothieno[3,2-c]pyridine, and Compound B represents sulfate of N-(1-octyl-5-carboxymethyl-4,6-dimethylindolin-7-yl)-2,2-dimethylpropanamide.

| SMILES | Medial intimal thickness (%) (Compound A 1 mg/kg) | Ratio of lesion surface area (%) (Compound A 1 mg/kg) | Smooth muscle cell occupancy rate in lesion at 1 mg/kg (Oryctolagus cuniculus, 1344 h, Compound A 1 mg/kg) [%] | Medial intimal thickness (%) (Compound B 3 mg/kg) | Ratio of lesion surface area (%) (Compound B 3 mg/kg) | Smooth muscle cell occupancy rate (%) (Compound B 3 mg/kg) |
| --- | --- | --- | --- | --- | --- | --- |
| CC(=O)Oc1cc2c(s1)CCN(C(C(=O)C1CC1)c1ccccc1F)C2 (stereo not drawn) [Compound A, 2-acetoxy-5-(α-cyclopropylcarbonyl-2-fluorobenzyl)-4,5,6,7-tetrahydrothieno[3,2-c]pyridine] | 275.4 ± 153.4 | 47.2 ± 14.2 | 5.5 ± 1.5 | – | – | – |
| CCCCCCCCN1CCc2c(C)c(CC(=O)O)c(C)c(NC(=O)C(C)(C)C)c21.O=S(=O)(O)O [Compound B, sulfate of N-(1-octyl-5-carboxymethyl-4,6-dimethylindolin-7-yl)-2,2-dimethylpropanamide] | – | – | – | 60.0 ± 34.2 | 40.6 ± 19.8 | 25.6 ± 14.8 |
